Laboratory results taken from ChEMBL document CHEMBL5649169 (ChemMedChem, 2018).

Columns and labels:
[1] = target: Signal recognition particle subunit SRP72 (Homo sapiens) (UniProt O76094)
[2] = target: Serine/threonine-protein kinase ULK3 (Homo sapiens) (UniProt Q6PHR2)
[3] = target: TAR DNA-binding protein 43 (Homo sapiens) (UniProt Q13148)
[4] = target: TGF-beta receptor type-2 (Homo sapiens) (UniProt P37173)
[5] = target: Centromere/kinetochore protein zw10 homolog (Homo sapiens) (UniProt O43264)
[6] = target: Large ribosomal subunit protein eL8 (Homo sapiens) (UniProt P62424)
[7] = target: Desmoplakin (Homo sapiens) (UniProt P15924)
[8] = target: Epidermal growth factor receptor (Homo sapiens) (UniProt P00533)
[9] = target: Dynein light chain 2, cytoplasmic (Homo sapiens) (UniProt Q96FJ2)
[10] = target: Hepatoma-derived growth factor (Homo sapiens) (UniProt P51858)
[11] = target: Mitochondrial 2-oxoglutarate/malate carrier protein (Homo sapiens) (UniProt Q02978)
[12] = target: Peroxiredoxin-6 (Homo sapiens) (UniProt P30041)
Homo sapiens [13] = species on record: Homo sapiens
[14] = target: Calmodulin-1 (Homo sapiens) (UniProt P0DP23)
[15] = target: Small ribosomal subunit protein eS8 (Homo sapiens) (UniProt P62241)
[16] = target: cGMP-dependent protein kinase 1 (Homo sapiens) (UniProt Q13976)
[17] = target: Importin-9 (Homo sapiens) (UniProt Q96P70)
[18] = target: Dual specificity mitogen-activated protein kinase kinase 5 (Homo sapiens) (UniProt Q13163)
[19] = target: Serine/threonine-protein kinase Nek9 (Homo sapiens) (UniProt Q8TD19)
Homo sapiens [20] = species on record: Homo sapiens; remark: listed apart in the source
[21] = target: Bromodomain adjacent to zinc finger domain protein 1A (Homo sapiens) (UniProt Q9NRL2)
[22] = target: Nucleoprotein TPR (Homo sapiens) (UniProt P12270)
[23] = target: Mitogen-activated protein kinase kinase kinase 3 (Homo sapiens) (UniProt Q99759)
[24] = target: Serine/threonine-protein kinase TAO3 (Homo sapiens) (UniProt Q9H2K8)
[25] = target: Aurora kinase A (Homo sapiens) (UniProt O14965)
[26] = target: Maternal embryonic leucine zipper kinase (Homo sapiens) (UniProt Q14680)
[27] = target: Isoleucine--tRNA ligase, cytoplasmic (Homo sapiens) (UniProt P41252)
[28] = target: Catechol O-methyltransferase (Homo sapiens) (UniProt P21964)
[29] = target: Activin receptor type-1 (Homo sapiens) (UniProt Q04771)
[30] = target: Non-selective voltage-gated ion channel VDAC1 (Homo sapiens) (UniProt P21796)
[31] = target: Peroxiredoxin-4 (Homo sapiens) (UniProt Q13162)
[32] = target: Delta-1-pyrroline-5-carboxylate synthase (Homo sapiens) (UniProt P54886)
[33] = target: Cytoplasmic dynein 1 heavy chain 1 (Homo sapiens) (UniProt Q14204)
[34] = target: Ribosomal protein S6 kinase alpha-6 (Homo sapiens) (UniProt Q9UK32)
[35] = target: Pre-mRNA-processing-splicing factor 8 (Homo sapiens) (UniProt Q6P2Q9)
Cyclin-A2 (Homo sapiens) = Cyclin-A2 (Homo sapiens) (UniProt P20248)
[36] = target: Peroxisomal acyl-coenzyme A oxidase 1 (Homo sapiens) (UniProt Q15067)
[37] = target: Microtubule-associated protein 1B (Homo sapiens) (UniProt P46821)
[38] = target: Protein disulfide-isomerase (Homo sapiens) (UniProt P07237)
[39] = target: Coatomer subunit beta (Homo sapiens) (UniProt P53618)
[40] = target: Mitogen-activated protein kinase 14 (Homo sapiens) (UniProt Q16539)
[41] = target: Ribosome-binding protein 1 (Homo sapiens) (UniProt Q9P2E9)
[42] = target: Tubulin beta-6 chain (Homo sapiens) (UniProt Q9BUF5)
[43] = target: Acidic leucine-rich nuclear phosphoprotein 32 family member A (Homo sapiens) (UniProt P39687)
[44] = target: AP-2 complex subunit alpha-1 (Homo sapiens) (UniProt O95782)
[45] = target: Mediator of RNA polymerase II transcription subunit 23 (Homo sapiens) (UniProt Q9ULK4)
[46] = target: Histone H1.10 (Homo sapiens) (UniProt Q92522)
Also: assay method not described here.

Desmoplakin (Homo sapiens), sequence (P15924 whole entry): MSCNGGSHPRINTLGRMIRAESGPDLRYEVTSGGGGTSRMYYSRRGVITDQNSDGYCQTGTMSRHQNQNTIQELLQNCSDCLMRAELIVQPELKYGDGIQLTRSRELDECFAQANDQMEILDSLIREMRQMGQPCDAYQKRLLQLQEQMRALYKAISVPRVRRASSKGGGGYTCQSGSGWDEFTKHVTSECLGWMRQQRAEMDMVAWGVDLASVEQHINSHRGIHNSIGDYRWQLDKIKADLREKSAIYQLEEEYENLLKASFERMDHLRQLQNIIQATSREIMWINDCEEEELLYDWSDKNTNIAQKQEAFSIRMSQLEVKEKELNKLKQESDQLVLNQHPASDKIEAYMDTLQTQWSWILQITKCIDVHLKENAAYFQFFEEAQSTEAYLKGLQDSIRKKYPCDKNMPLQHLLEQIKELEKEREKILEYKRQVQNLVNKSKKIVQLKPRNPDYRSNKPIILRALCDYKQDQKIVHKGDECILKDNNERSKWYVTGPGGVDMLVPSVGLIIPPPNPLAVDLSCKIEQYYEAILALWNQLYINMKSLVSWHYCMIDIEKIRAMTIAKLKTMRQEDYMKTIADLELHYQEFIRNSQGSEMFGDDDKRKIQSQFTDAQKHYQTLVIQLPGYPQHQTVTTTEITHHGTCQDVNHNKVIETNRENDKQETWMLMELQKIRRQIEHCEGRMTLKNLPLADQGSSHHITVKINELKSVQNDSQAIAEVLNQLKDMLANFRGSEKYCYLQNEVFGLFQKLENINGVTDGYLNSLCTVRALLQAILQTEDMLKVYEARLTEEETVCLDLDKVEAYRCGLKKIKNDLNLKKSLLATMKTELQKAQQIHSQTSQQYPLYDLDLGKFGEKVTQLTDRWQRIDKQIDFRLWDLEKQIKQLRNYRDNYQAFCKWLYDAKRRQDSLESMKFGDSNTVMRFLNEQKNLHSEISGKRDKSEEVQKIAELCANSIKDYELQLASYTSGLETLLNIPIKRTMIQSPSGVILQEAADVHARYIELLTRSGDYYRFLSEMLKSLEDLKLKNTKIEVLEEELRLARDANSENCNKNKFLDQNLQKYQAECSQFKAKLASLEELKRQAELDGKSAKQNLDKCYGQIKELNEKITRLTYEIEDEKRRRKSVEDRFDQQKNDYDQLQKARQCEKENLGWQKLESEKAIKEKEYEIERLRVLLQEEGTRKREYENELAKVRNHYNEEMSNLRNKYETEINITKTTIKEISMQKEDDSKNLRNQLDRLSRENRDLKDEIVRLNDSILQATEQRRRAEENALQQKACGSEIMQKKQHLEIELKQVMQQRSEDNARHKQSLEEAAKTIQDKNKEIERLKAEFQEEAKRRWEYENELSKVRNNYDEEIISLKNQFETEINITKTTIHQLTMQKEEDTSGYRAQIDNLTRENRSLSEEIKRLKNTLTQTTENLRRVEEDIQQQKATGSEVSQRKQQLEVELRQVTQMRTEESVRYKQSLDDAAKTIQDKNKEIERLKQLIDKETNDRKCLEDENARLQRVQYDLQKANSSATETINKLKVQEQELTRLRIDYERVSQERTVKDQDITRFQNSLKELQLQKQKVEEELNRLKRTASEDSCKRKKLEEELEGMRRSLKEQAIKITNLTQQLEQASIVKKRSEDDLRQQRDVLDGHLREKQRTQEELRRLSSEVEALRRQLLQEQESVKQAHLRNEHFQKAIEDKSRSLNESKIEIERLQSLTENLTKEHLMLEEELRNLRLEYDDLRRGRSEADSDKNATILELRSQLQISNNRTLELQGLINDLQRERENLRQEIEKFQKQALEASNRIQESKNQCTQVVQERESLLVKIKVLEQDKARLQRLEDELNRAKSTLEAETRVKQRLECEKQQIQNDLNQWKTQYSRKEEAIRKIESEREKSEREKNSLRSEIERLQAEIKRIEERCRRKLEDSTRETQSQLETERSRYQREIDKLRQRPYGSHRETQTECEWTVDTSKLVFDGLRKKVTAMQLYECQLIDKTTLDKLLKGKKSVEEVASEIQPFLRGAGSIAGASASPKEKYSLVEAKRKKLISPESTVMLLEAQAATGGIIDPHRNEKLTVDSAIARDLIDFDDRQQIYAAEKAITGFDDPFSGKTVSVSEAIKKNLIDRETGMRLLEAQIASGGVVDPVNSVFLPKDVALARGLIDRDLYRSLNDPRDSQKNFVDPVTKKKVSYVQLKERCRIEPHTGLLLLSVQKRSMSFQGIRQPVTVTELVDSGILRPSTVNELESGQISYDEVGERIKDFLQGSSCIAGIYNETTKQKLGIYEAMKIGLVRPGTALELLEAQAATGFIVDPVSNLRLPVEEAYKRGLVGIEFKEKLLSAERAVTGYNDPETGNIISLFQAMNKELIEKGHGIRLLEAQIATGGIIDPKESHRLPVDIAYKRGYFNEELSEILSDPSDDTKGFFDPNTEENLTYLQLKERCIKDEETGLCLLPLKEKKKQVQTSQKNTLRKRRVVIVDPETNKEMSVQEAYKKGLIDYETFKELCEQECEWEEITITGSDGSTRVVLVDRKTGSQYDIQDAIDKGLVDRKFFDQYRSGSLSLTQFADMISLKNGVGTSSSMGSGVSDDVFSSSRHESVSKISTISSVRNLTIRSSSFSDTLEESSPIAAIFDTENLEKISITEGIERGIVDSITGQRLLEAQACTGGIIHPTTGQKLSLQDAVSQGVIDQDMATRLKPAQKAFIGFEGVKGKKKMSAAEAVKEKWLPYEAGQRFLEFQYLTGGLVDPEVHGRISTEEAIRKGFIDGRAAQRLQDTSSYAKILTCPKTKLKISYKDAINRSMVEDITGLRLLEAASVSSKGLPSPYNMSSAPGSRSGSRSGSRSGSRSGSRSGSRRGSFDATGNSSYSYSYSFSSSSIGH
Peroxiredoxin-6 (Homo sapiens), sequence (P30041 whole entry): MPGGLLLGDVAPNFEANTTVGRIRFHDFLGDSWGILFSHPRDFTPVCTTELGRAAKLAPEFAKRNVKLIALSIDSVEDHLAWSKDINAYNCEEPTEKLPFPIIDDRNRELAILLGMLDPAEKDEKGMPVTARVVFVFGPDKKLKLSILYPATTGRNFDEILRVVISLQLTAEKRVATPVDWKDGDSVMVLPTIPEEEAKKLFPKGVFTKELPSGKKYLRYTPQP
Peroxiredoxin-4 (Homo sapiens), sequence (Q13162 whole entry): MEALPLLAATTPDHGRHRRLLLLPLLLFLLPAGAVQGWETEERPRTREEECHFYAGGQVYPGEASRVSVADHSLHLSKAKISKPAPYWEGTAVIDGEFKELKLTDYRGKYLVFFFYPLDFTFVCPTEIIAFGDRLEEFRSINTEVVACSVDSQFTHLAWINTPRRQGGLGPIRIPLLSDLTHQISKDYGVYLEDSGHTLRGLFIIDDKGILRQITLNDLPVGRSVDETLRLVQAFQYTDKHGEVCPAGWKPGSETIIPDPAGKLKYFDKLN
Protein disulfide-isomerase (Homo sapiens), sequence (P07237 18-508 limits assumed): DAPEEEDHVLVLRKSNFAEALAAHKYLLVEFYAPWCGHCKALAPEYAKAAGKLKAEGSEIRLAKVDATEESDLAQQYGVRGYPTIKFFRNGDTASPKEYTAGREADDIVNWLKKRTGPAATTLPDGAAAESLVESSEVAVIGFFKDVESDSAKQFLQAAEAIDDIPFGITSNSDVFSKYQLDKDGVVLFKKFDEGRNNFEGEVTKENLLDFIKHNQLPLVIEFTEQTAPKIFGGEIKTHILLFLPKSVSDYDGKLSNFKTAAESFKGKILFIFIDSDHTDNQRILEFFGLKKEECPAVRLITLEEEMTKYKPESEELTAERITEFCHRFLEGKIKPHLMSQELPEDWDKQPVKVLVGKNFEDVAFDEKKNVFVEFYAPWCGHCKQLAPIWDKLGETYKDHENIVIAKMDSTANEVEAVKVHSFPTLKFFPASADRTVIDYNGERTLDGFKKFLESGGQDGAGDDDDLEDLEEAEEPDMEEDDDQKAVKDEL
Signal recognition particle subunit SRP72 (Homo sapiens), sequence (O76094 whole entry): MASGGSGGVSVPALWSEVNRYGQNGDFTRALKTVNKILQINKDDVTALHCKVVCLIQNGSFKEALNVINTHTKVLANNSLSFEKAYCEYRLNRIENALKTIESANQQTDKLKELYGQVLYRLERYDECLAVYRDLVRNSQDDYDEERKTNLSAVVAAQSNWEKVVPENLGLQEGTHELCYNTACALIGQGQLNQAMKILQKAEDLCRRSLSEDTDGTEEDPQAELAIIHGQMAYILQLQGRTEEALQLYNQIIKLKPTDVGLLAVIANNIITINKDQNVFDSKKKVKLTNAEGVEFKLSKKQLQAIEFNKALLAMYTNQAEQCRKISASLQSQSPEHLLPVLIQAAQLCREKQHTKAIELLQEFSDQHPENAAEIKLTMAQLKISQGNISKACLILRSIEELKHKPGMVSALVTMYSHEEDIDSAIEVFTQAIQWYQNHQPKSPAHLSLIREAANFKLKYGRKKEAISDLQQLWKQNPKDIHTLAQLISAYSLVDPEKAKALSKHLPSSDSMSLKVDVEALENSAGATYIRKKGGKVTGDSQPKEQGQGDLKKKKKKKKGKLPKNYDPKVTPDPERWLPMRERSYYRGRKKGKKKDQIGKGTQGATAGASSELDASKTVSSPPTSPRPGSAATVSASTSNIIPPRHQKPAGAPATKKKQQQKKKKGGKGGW
Mitochondrial 2-oxoglutarate/malate carrier protein (Homo sapiens), sequence (Q02978 whole entry): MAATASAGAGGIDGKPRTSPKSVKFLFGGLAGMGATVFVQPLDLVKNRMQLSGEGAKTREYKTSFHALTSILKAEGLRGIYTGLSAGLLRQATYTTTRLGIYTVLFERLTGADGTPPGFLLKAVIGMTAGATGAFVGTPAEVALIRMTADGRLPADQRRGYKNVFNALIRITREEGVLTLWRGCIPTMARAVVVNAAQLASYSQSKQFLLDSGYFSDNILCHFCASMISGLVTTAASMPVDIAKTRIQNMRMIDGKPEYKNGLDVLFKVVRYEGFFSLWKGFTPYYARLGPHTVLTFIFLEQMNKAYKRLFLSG
Histone H1.10 (Homo sapiens), sequence (Q92522 whole entry): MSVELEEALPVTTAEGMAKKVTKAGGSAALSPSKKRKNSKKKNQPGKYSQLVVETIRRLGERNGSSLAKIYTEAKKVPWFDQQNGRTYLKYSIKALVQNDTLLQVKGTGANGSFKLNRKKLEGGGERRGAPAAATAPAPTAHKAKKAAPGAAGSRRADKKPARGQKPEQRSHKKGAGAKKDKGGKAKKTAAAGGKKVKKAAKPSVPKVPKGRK

Cc1ccc(C(=O)Nc2cccc(C(F)(F)F)c2)cc1Nc1nc(-c2cccnc2)nc2c1cnn2C
ED50 [1]: 0.00763 µM | ED50 [2]: 3.54 µM | ED50 [3]: 0.814 µM | ED50 [4]: 35.5 µM | ED50 [5]: 2.9 µM | ED50 [6]: 2.57 µM | ED50 [7]: 22.3 µM | ED50 [8]: 0.114 µM | ED50 [9]: 0.148 µM | ED50 [10]: 0.0049 µM | ED50 [11]: 0.0531 µM | ED50 [12]: 66.2 µM | ED50 (Homo sapiens [13]): 3.01 µM | ED50 [14]: 0.11 µM | ED50 [15]: 1.62 µM | ED50 [16]: 0.00246 µM | ED50 [17]: 19.2 µM | ED50 [18]: 5.94 µM | ED50 [19]: 0.163 µM | ED50 (Homo sapiens [20]): 4.25 µM | ED50 [21]: 0.532 µM | ED50 [22]: 10.4 µM | ED50 [23]: 12.1 µM | ED50 [24]: 5.85 µM | ED50 [25]: 6.29 µM | ED50 [26]: 0.0176 µM | ED50 [27]: 0.0944 µM | ED50 [28]: 21.6 µM | ED50 [29]: 0.00315 µM | ED50 [30]: 0.00899 µM | ED50 [31]: 2.73 µM | ED50 [32]: 224 µM | ED50 [33]: 1.3 µM | ED50 [34]: 0.735 µM | ED50 [35]: 93.7 µM | ED50 (Cyclin-A2 (Homo sapiens)): 4.89 µM | ED50 [36]: 15.2 µM | ED50 [37]: 0.0244 µM | ED50 [38]: 4.25 µM | ED50 [39]: 0.813 µM | ED50 [40]: 1 µM | ED50 [41]: 11.3 µM | ED50 [42]: 2.53 µM | ED50 [43]: 2.29 µM | ED50 [44]: 0.217 µM | ED50 [45]: 4.89 µM | ED50 [46]: 7.24 µM

Cc1ccc(C(=O)Nc2cccc(C(F)(F)F)c2)cc1Nc1nc(-c2cccnc2)nc2nn(C)cc12
ED50 [1]: 0.614 µM | ED50 [2]: 0.0784 µM | ED50 [3]: 0.176 µM | ED50 [4]: 0.00886 µM | ED50 [5]: 0.0544 µM | ED50 [6]: 9.78 µM | ED50 [7]: 0.288 µM | ED50 [8]: 0.213 µM | ED50 [9]: 0.459 µM | ED50 [10]: 12.4 µM | ED50 [11]: 0.00199 µM | ED50 [12]: 0.0611 µM | ED50 (Homo sapiens [13]): 0.135 µM | ED50 [14]: 0.213 µM | ED50 [15]: 9.51 µM | ED50 [16]: 4.94 µM | ED50 [17]: 0.00375 µM | ED50 [18]: 0.00101 µM | ED50 [19]: 0.0519 µM | ED50 (Homo sapiens [20]): 0.0418 µM | ED50 [21]: 0.0186 µM | ED50 [22]: 7.76 µM | ED50 [23]: 0.0358 µM | ED50 [24]: 0.0641 µM | ED50 [25]: 9.32 µM | ED50 [26]: 6.57 µM | ED50 [27]: 4.57 µM | ED50 [28]: 0.169 µM | ED50 [29]: 34000 µM | ED50 [30]: 0.0559 µM | ED50 [31]: 0.0305 µM | ED50 [32]: 41.7 µM | ED50 [33]: 51200 µM | ED50 [34]: 20400 µM | ED50 [35]: 0.553 µM | ED50 (Cyclin-A2 (Homo sapiens)): 0.586 µM | ED50 [36]: 2.69 µM | ED50 [37]: 0.01 µM | ED50 [38]: 11.7 µM | ED50 [39]: 0.928 µM | ED50 [40]: 18.2 µM | ED50 [41]: 0.277 µM | ED50 [42]: 4.67 µM | ED50 [43]: 12.4 µM | ED50 [44]: 4.78 µM | ED50 [45]: 4.73 µM | ED50 [46]: 0.0167 µM
